Earlier results as cited in patent US7247752B2, “Methods for the synthesis of astaxanthin” (Cardax Pharmaceuticals, Inc., priority 2004, dated 2007).

System: transformed cells as well as normal prostatic epithelium
Details: alone and/or in combination with other antioxidants (e.g. vitamin E)

In the case of `CC(C)=CCC/C(C)=C/C=C/C(C)=C/C=C/C(C)=C/C=C/C=C(C)/C=C/C=C(C)/C=C/C=C(\C)CCC=C(C)C` [lycopene], the “growth inhibition of cultured human cells” value is listed as “growth inhibitory”.
